Assay results taken from PMC12654037, “Norditerpene Natural Products from Subterranean Fungi with Anti-Parasitic Activity” (Microorganisms, 2025).

Tested on: T. gondii
Assay: T. gondii growth inhibition assay (TgRH-Luc:GFP-infected HFF cells)
Type: cell-based
Conditions: Toxoplasma gondii, 10 µM to 156 nM, Figure 2E
Description: T. gondii growth inhibition assays: The T. gondii inhibition assay was described previously. Briefly, HFF cells were seeded onto white-sided, clear-bottom 96 well plates, grown to confluence, and then 5000 TgRH-Luc:GFP parasites were added to each well. At 24 hpi, compounds or DMSO were added. The growth of the parasites was determined by relative luminescence at 48 hpi using Promega Bright-Glo (Promega, Madison, WI, USA) substrate. Plates were read, and the percent inhibition of parasite growth was calculated as described above. Determination of -static versus -cidal activity was conducted as indicated above, with parasite growth quantified after 48 h of infection. Each sample was run in triplicate, and each experiment was repeated three times.

CO[C@H]1OC(=O)C=C2[C@@]13O[C@@H]3[C@H]1OC(=O)[C@@]3(C)CCC[C@@]2(C)[C@@H]13 [compound 1, oidiolactone A]
EC50: 1.63 µM
